NC(=O)[C@@H]1CCCN1
solubility (mole fraction)
Conditions	in DMF	in THF	in acetone	in acetonitrile	in cyclohexane	in ethyl acetate	in isopropanol	in n-heptane	in n-hexane	in n-propanol
278.15 K	0.0422	0.0621	0.0644	0.0557	6e-05	0.0134	0.0532	0.00025	6e-05	0.0467
283.15 K	0.0578	0.075	0.078	0.0634	9e-05	0.0179	0.0618	0.00036	9e-05	0.0597
288.15 K	0.0758	0.0885	0.0956	0.073	0.00014	0.0242	0.0795	0.00049	0.00015	0.0753
293.15 K	0.0976	0.107	0.113	0.0838	0.00022	0.0315	0.0995	0.00068	0.00023	0.0933
298.15 K	0.123	0.129	0.133	0.0951	0.00032	0.042	0.125	0.00096	0.00032	0.111
303.15 K	0.156	0.156	0.154	0.106	0.00051	0.0549	0.153	0.00131	0.00051	0.13
308.15 K	0.194	0.189	0.177	0.116	0.00079	0.0711	0.19	0.0018	0.00077	0.16
313.15 K	0.238	0.228	0.2	0.127	0.00124	0.0927	0.23	0.00239	0.00112	0.204
318.15 K	0.288	0.287	0.225	0.138	0.0017	0.121	0.28	0.00304	0.00159	0.259
323.15 K	0.347	0.362	0.252	0.148	0.00231	0.154	0.355	0.00401	0.00212	0.328
